These are literature values, as cited in US20220218740A1, “OPIOID-FREE COMPOSITIONS FOR ANESTHESIOLOGICAL APPLICATIONS AND RELATED METHODS AND SYSTEMS” (Vaporworks Nursing Anesthesia Inc., priority 2020, published 2022).

Structures are written as SMILES. Like-named read-outs stand apart in the source and are kept apart here.

Assay in data set [1]: not given
The source holds these as a separate data set.

The conditions of data set [2]: infusion continued post-surgically.

Consider `Cc1cccc([C@H](C)c2cnc[nH]2)c1C` [Dexmedetomidine], for which, where the note is “IV”, the peek effect is 15 min.

On to `C[C@@H]1C[C@H]2[C@@H]3CCC4=CC(=O)C=C[C@]4(C)[C@@]3(F)[C@@H](O)C[C@]2(C)[C@@]1(O)C(=O)COP(=O)(O)O` [Dexamethasone, Dexamethasone Sodium phosphate], for which, where the note is “in vivo”, the onset time result is “two” and the “time until peak effect” value is recorded as “at least 1 hour”.

For the compound `CC(CCc1ccccc1)NCC(O)c1ccc(O)c(C(N)=O)c1` (stereo not shown) [labetalol], in data set [1] (in vivo), the Duration entry was “up to 4 hours”, the Onset was 2 to 5 min and the Peak is 5 to 15 min.

In the case of `COC(=O)CCc1ccc(OCC(O)CNC(C)C)cc1` (stereo not shown) [esmolol], in data set [1] (in vivo), the Duration was greater than 20 min and the Peak is 2 to 6 min. For the same compound, the Onset entry in data set [1] (in words) is given as “Immediate”.

As to `CCN(CC)CC(=O)Nc1c(C)cccc1C` [Lidocaine], the “Peak serum levels occur after medication administration” value in data set [2] is given as “serum levels occur 24 hours”.
